Data reported in the NIST ThermoML archive (doi:10.1016/j.jct.2017.07.012).
± gives the expanded uncertainty stated by the source.

Assay: activity coefficient (dimensionless); of the first substance listed, at infinite dilution; xn = mol fraction of the nth substance listed
Conditions: 323.15 K; 101.33 kPa; Liquid; Chromatography; x1 = 0

**Q.** Which activity coefficient does the source give for `CCc1ccccc1` [ethylbenzene] + CCCCn1cc[n+](C)c1.[O-][Cl+3]([O-])([O-])[O-] here?
**A.** 5.05 ± 0.53

**Q.** Which activity coefficient does the source give for `CCOC(C)=O` [ethyl acetate] + CCCCn1cc[n+](C)c1.[O-][Cl+3]([O-])([O-])[O-] here?
**A.** 2.46 ± 0.26

**Q.** With `ClC(Cl)(Cl)Cl` [tetrachloromethane] + CCCCn1cc[n+](C)c1.[O-][Cl+3]([O-])([O-])[O-] as the molecule, how does the activity coefficient read?
**A.** 4.1 ± 0.43

**Q.** Which activity coefficient does the source give for `CC(C)CO` [2-methyl-1-propanol] + CCCCn1cc[n+](C)c1.[O-][Cl+3]([O-])([O-])[O-] here?
**A.** 2.9 ± 0.3

**Q.** With `CCCCCCC` [heptane] + CCCCn1cc[n+](C)c1.[O-][Cl+3]([O-])([O-])[O-] as the molecule, how does the activity coefficient read?
**A.** 99.1 ± 10

**Q.** With `CCCO` [propan-1-ol] + CCCCn1cc[n+](C)c1.[O-][Cl+3]([O-])([O-])[O-] as the molecule, how does the activity coefficient read?
**A.** 2.05 ± 0.22

**Q.** Which activity coefficient does the source give for `CC(C)=O` [acetone] + CCCCn1cc[n+](C)c1.[O-][Cl+3]([O-])([O-])[O-] here?
**A.** 0.94 ± 0.1

**Q.** With `C1CCCCC1` [cyclohexane] + CCCCn1cc[n+](C)c1.[O-][Cl+3]([O-])([O-])[O-] as the molecule, how does the activity coefficient read?
**A.** 35.2 ± 3.7

**Q.** With `C1COCCO1` [1,4-dioxane] + CCCCn1cc[n+](C)c1.[O-][Cl+3]([O-])([O-])[O-] as the molecule, how does the activity coefficient read?
**A.** 1 ± 0.1

**Q.** Which activity coefficient does the source give for `C1CCOC1` [tetrahydrofuran] + CCCCn1cc[n+](C)c1.[O-][Cl+3]([O-])([O-])[O-] here?
**A.** 1.67 ± 0.17

**Q.** With `CCCCCCCCCC` [decane] + CCCCn1cc[n+](C)c1.[O-][Cl+3]([O-])([O-])[O-] as the molecule, how does the activity coefficient read?
**A.** 217 ± 23

**Q.** With `Cc1ccccc1C` [1,2-dimethylbenzene] + CCCCn1cc[n+](C)c1.[O-][Cl+3]([O-])([O-])[O-] as the molecule, how does the activity coefficient read?
**A.** 4.09 ± 0.43

**Q.** For `CCCCCCCCC` [nonane] + CCCCn1cc[n+](C)c1.[O-][Cl+3]([O-])([O-])[O-], which activity coefficient is on record?
**A.** 142 ± 15

**Q.** For `Cc1ccccc1` [toluene] + CCCCn1cc[n+](C)c1.[O-][Cl+3]([O-])([O-])[O-], which activity coefficient is on record?
**A.** 3.1 ± 0.33

**Q.** Which activity coefficient does the source give for `ClC(Cl)Cl` [trichloromethane] + CCCCn1cc[n+](C)c1.[O-][Cl+3]([O-])([O-])[O-] here?
**A.** 0.93 ± 0.09

**Q.** For `CCC(C)O` (stereo not given) [butan-2-ol] + CCCCn1cc[n+](C)c1.[O-][Cl+3]([O-])([O-])[O-], which activity coefficient is on record?
**A.** 2.66 ± 0.28

**Q.** With `CO` [methanol] + CCCCn1cc[n+](C)c1.[O-][Cl+3]([O-])([O-])[O-] as the molecule, how does the activity coefficient read?
**A.** 1.05 ± 0.11

**Q.** Which activity coefficient does the source give for `Cc1ccc(C)cc1` [1,4-dimethylbenzene] + CCCCn1cc[n+](C)c1.[O-][Cl+3]([O-])([O-])[O-] here?
**A.** 4.82 ± 0.51

**Q.** With `C1=CCCCC1` [cyclohexene] + CCCCn1cc[n+](C)c1.[O-][Cl+3]([O-])([O-])[O-] as the molecule, how does the activity coefficient read?
**A.** 14.7 ± 1.6

**Q.** Which activity coefficient does the source give for `CC(C)CC(C)(C)C` [2,2,4-trimethylpentane] + CCCCn1cc[n+](C)c1.[O-][Cl+3]([O-])([O-])[O-] here?
**A.** 107 ± 11

**Q.** Which activity coefficient does the source give for `CCCCCC` [hexane] + CCCCn1cc[n+](C)c1.[O-][Cl+3]([O-])([O-])[O-] here?
**A.** 98 ± 10

**Q.** Which activity coefficient does the source give for `CC1CCCCC1` [methylcyclohexane] + CCCCn1cc[n+](C)c1.[O-][Cl+3]([O-])([O-])[O-] here?
**A.** 47 ± 5

**Q.** For `Cc1cccc(C)c1` [1,3-dimethylbenzene] + CCCCn1cc[n+](C)c1.[O-][Cl+3]([O-])([O-])[O-], which activity coefficient is on record?
**A.** 4.99 ± 0.52

**Q.** With `CC#N` [acetonitrile] + CCCCn1cc[n+](C)c1.[O-][Cl+3]([O-])([O-])[O-] as the molecule, how does the activity coefficient read?
**A.** 0.63 ± 0.07

**Q.** Which activity coefficient does the source give for `CCCCCCCC` [octane] + CCCCn1cc[n+](C)c1.[O-][Cl+3]([O-])([O-])[O-] here?
**A.** 119 ± 12

**Q.** With `c1ccccc1` [benzene] + CCCCn1cc[n+](C)c1.[O-][Cl+3]([O-])([O-])[O-] as the molecule, how does the activity coefficient read?
**A.** 1.97 ± 0.21

**Q.** Which activity coefficient does the source give for `CCO` [ethanol] + CCCCn1cc[n+](C)c1.[O-][Cl+3]([O-])([O-])[O-] here?
**A.** 1.59 ± 0.17

Same assay, conditions: 333.15 K; 101.33 kPa; Liquid; Chromatography; x1 = 0

**Q.** Which activity coefficient does the source give for `CCCCCO` [pentan-1-ol] + CCCCn1cc[n+](C)c1.[O-][Cl+3]([O-])([O-])[O-] here?
**A.** 3.88 ± 0.41

**Q.** For `CCCCO` [butan-1-ol] + CCCCn1cc[n+](C)c1.[O-][Cl+3]([O-])([O-])[O-], which activity coefficient is on record?
**A.** 2.73 ± 0.29

**Q.** For `ClCCl` [dichloromethane] + CCCCn1cc[n+](C)c1.[O-][Cl+3]([O-])([O-])[O-], which activity coefficient is on record?
**A.** 1.01 ± 0.1

**Q.** For `CC(C)O` [propan-2-ol] + CCCCn1cc[n+](C)c1.[O-][Cl+3]([O-])([O-])[O-], which activity coefficient is on record?
**A.** 2.06 ± 0.22

**Q.** Which activity coefficient does the source give for `CCc1ccccc1` [ethylbenzene] + CCCCn1cc[n+](C)c1.[O-][Cl+3]([O-])([O-])[O-] here?
**A.** 5.11 ± 0.54

**Q.** With `CCOC(C)=O` [ethyl acetate] + CCCCn1cc[n+](C)c1.[O-][Cl+3]([O-])([O-])[O-] as the molecule, how does the activity coefficient read?
**A.** 2.54 ± 0.27

**Q.** Which activity coefficient does the source give for `ClC(Cl)(Cl)Cl` [tetrachloromethane] + CCCCn1cc[n+](C)c1.[O-][Cl+3]([O-])([O-])[O-] here?
**A.** 4.22 ± 0.44

**Q.** With `CC(C)CCO` [3-methylbutan-1-ol] + CCCCn1cc[n+](C)c1.[O-][Cl+3]([O-])([O-])[O-] as the molecule, how does the activity coefficient read?
**A.** 3.49 ± 0.37

**Q.** Which activity coefficient does the source give for `CC(C)CO` [2-methyl-1-propanol] + CCCCn1cc[n+](C)c1.[O-][Cl+3]([O-])([O-])[O-] here?
**A.** 2.67 ± 0.28

**Q.** With `CCCCCCC` [heptane] + CCCCn1cc[n+](C)c1.[O-][Cl+3]([O-])([O-])[O-] as the molecule, how does the activity coefficient read?
**A.** 108 ± 11

**Q.** With `CCCO` [propan-1-ol] + CCCCn1cc[n+](C)c1.[O-][Cl+3]([O-])([O-])[O-] as the molecule, how does the activity coefficient read?
**A.** 1.99 ± 0.21

**Q.** Which activity coefficient does the source give for `CC(C)=O` [acetone] + CCCCn1cc[n+](C)c1.[O-][Cl+3]([O-])([O-])[O-] here?
**A.** 0.98 ± 0.1

**Q.** Which activity coefficient does the source give for `C1CCCCC1` [cyclohexane] + CCCCn1cc[n+](C)c1.[O-][Cl+3]([O-])([O-])[O-] here?
**A.** 35.4 ± 3.7

**Q.** With `C1COCCO1` [1,4-dioxane] + CCCCn1cc[n+](C)c1.[O-][Cl+3]([O-])([O-])[O-] as the molecule, how does the activity coefficient read?
**A.** 1.02 ± 0.1

**Q.** Which activity coefficient does the source give for `C1CCOC1` [tetrahydrofuran] + CCCCn1cc[n+](C)c1.[O-][Cl+3]([O-])([O-])[O-] here?
**A.** 1.94 ± 0.2

**Q.** With `CCCCCCCCCC` [decane] + CCCCn1cc[n+](C)c1.[O-][Cl+3]([O-])([O-])[O-] as the molecule, how does the activity coefficient read?
**A.** 204 ± 22

**Q.** With `Cc1ccccc1C` [1,2-dimethylbenzene] + CCCCn1cc[n+](C)c1.[O-][Cl+3]([O-])([O-])[O-] as the molecule, how does the activity coefficient read?
**A.** 4.16 ± 0.44

**Q.** With `CCCCCCCCC` [nonane] + CCCCn1cc[n+](C)c1.[O-][Cl+3]([O-])([O-])[O-] as the molecule, how does the activity coefficient read?
**A.** 137 ± 14
